From patent US6756509B2, “Method for purifying crude 2,6-naphthalenedicarboxylic acid” (Kobe Steel, Ltd., priority 2001, dated 2004)

Assays:
[1] = solubility in alcohol at room temperature
[2] = solubility in water at room temperature; assay type: physicochemical
Experimental: Preferably, the reduction reaction is performed at a temperature in the range of 280 to 350° C. […] In addition, in order to maintain the liquid phase at a high temperature in the range described above, the pressure must be the saturated vapor pressure or higher (150 to 250 atm). Fortunately, using hydrogen dissolved in water prevents the equipment from deteriorating. Specifically, if hydrogen gas is supplied to a water medium containing 2,6-NDA, the hydrogen gas is used at such a high temperature and high pressure, consequently making the reactor brittle. In order to prevent the embrittlement, pressure-resistant equipment, which is expensive, is required.

SMILES | solubility in alcohols ([1]; any alcohols) | solubility in water [2] | amount that dissolves in ethanol ([1]; ethanol)
O=C(O)c1ccc2cc(C(=O)O)ccc2c1 [2,6-NDA, 2,6-naphthalenedicarboxylic acid] | hardly dissolves | slightly soluble or insoluble | –
O=C(O)c1ccc2ccccc2c1 [2-NA, 2-naphthoic acid] | – | – | 10 mass %
